Data taken from PMC4222822, “Discovery and Characterization of a Potent and Selective Inhibitor of Aedes aegypti Inward Rectifier Potassium Channels” (PLoS ONE, 2014).
Read-outs that look alike come from different tables or passages of the source.

How the values were obtained:
AeKir2B = AeKir2B (Aedes aegypti, UniProt L0EQ40); assay: Two-electrode electrophysiology of Xenopus oocytes expressing AeKir2B; type: cell-based; conditions: inward current at −140 mV, 95% CI: 31.7–64.2 µM, n = 4–5 oocytes per concentration, read-out: IC50 of AeKir2B current inhibition
Sequence of AeKir2B (L0EQ40 entry or part of it): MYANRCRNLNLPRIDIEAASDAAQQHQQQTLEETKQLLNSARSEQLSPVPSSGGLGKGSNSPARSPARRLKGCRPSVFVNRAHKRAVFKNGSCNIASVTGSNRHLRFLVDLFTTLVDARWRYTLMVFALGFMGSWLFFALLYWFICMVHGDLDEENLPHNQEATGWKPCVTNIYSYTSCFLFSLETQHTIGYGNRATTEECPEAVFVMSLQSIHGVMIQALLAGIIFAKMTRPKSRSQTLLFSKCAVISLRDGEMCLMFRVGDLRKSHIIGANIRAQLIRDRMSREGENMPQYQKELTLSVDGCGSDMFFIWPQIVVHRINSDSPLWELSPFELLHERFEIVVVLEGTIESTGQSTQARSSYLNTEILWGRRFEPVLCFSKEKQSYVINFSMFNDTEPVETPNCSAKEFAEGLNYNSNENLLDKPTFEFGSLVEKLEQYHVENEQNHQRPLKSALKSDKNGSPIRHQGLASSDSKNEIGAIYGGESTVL
Experimental: AeKir1 and AeKir2B channels were expressed heterologously in Xenopus laevis oocytes as described previously. In brief, defolliculated Xenopus oocytes (purchased from Ecocyte Bioscience, Austin, TX) were injected with 10 ng (0.35 ng/nL) of either AeKir1 or AeKir2B cRNA and cultured for 3–7 days in OR3 media at 18°C. Oocytes injected with 28 nl of nuclease-free H2O served as controls.
All electrophysiological experiments on Xenopus oocytes were performed at room temperature. When present, VU625 was dissolved in solution III or solution V to a final concentration of 0.1, 1, 5, 15, or 50 µM (0.05% DMSO). All solutions were delivered by gravity to a RC-3Z oocyte chamber (Warner Instruments, Hamden, CT) via polyethylene tubing at a flow rate of ∼2 ml/min. Solution changes were made with a Rheodyne Teflon 8-way Rotary valve (Model 5012, Rheodyne, Rohnert Park, CA).
Electrophysiological recordings from oocytes were conducted as described previously In brief, each oocyte was transferred to the holding chamber under superfusion with solution I and impaled with two conventional-glass microelectrodes backfilled with 3 M KCl (resistances of 0.5–1.5 MΩ) to measure membrane potential (Vm) and whole-cell membrane current (Im), respectively. […] All Vm and Im values were recorded by a Digidata 1440A Data Acquisition System (Molecular Devices) and the Clampex module of pCLAMP. […]

AeKir1 = AeKir1 (Aedes aegypti, UniProt L0EQS9); assay: Tl+ flux assay in T-REx-HEK293-AeKir1 cells; type: cell-based
Sequence of AeKir1 (L0EQS9 entry or part of it): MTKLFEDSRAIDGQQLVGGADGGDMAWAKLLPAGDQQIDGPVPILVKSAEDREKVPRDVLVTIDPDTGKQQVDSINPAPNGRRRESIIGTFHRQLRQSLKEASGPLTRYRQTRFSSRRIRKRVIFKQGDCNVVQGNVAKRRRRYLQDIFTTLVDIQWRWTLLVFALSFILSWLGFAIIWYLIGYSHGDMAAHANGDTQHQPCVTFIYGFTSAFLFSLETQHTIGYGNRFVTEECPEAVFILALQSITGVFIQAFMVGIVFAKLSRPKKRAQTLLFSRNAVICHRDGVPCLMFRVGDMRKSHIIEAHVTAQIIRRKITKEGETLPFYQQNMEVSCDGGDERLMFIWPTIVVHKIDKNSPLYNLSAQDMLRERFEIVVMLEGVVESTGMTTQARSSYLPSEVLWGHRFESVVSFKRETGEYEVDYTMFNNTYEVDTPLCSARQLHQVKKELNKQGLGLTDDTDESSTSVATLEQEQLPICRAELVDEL
Experimental: Tl^+ flux assays were performed essentially as described previously, [18], [19]. Briefly, stably transfected T-Rex-HEK-293 cells expressing AeKir1 channels were cultured overnight in 384-well plates (20,000 cells/20 µL/well black-walled, clear-bottomed BD PureCoat amine-coated plates (BD, Bedford, MA) with a plating media containing DMEM, 10% dialyzed FBS and 1 µg/mL tetracycline. The next day, the cell culture medium was replaced with a dye-loading solution containing assay buffer (Hanks Balanced Salt Solution with 20 mM HEPES, pH 7.3), 0.01% (w/v) Pluronic F-127 (Life Technologies, Carlsbad, CA), and 1.2 µM of the thallium-sensitive dye Thallos-AM (TEFlabs, Austin, TX). Following 1 hr incubation at room temperature, the dye-loading solution was washed from the plates and replaced with 20 µL/well of assay buffer. The plates were transferred to a Hamamatsu Functional Drug Screening System 6000 (FDSS6000; Hamamatsu, Hamamatsu (or Bridgewater, NJ), Japan) where 20 µL/well of test compounds in assay buffer (as prepared below) were added and allowed to incubate with the cells for 20 min. After the incubation period, a baseline recording was collected at 1 Hz for 10 s (excitation 470±20 nm, emission 540±30 nm) followed by a Tl^+ stimulus buffer addition (10 µL/well) and data collection for an additional 4 min. The Tl^+ stimulus buffer contains in (mM) 125 NaHCO3, 1.8 CaSO4, 1 MgSO4, 5 glucose, 12 Tl2SO4, 10 HEPES, pH 7.4. For Tl^+ flux assays on the mammalian channels Kir2.x, Kir4.1 and Kir6.2/SUR1 expressing cells, the Tl^+ stimulus buffer contained 1.8 mM Tl2SO4. Also, Tl^+ flux assays on Kir3.1/3.2/mGlu8 expressing cell, required addition of an EC80 concentration of glutamate (Sigma-Aldrich, St. Louis, MO) with the Tl^+ stimulus buffer. The test compounds were transferred to daughter polypropylene 384-well plates (Greiner Bio-One, Monroe, NC) using an Echo555 liquid handler (Labcyte, Sunnyvale, CA), and then diluted into assay buffer to generate a 2X stock in 0.6% DMSO (0.3% final). For Tl^+ flux assays on Kir6.2/SUR1 expressing cells, test compounds were diluted in assay buffer containing diazoxide (250 µM final) to induce channel activation. Concentration-response curves (CRCs) were generated by screening compounds at 3-fold dilution series in 4-point (1 µM–30 µM) or 11-point (1 nM–30 µM) CRCs. Tl^+ flux data were analyzed as previously described, [21], [22] using a combination of Excel (Microsoft Corp, Redmond, WA) with XLfit add-in (IDBS, Guildford, Surrey, UK) and OriginPro (OriginLab, Northampton, MA) software. Raw data were opened in Excel and each data point in a given trace was divided by the first data point from that trace (static ratio) followed by subtraction of data points from control traces generated in the presence of vehicle controls. The slope of the fluorescence increase beginning 5 s after Tl^+ addition and ending 15 s after Tl^+ addition was calculated. To compare the effect of DMSO on AeKir1-mediated Tl^+ flux, a one-way ANOVA was performed with a Tukey's multiple comparison test. Prism software (GraphPad Software) was used to generate CRC from Tl^+ flux. Half-inhibition concentration (IC50) values were calculated from fits using a four parameter logistic equation.

5-HT2B receptor = 5-HT2B receptor (Homo sapiens, UniProt P41595); assay: Radioligand displacement assay, 5-HT2B receptor; type: binding, mammalian; conditions: 10 µM VU625
Sequence of 5-HT2B receptor (P41595 whole entry): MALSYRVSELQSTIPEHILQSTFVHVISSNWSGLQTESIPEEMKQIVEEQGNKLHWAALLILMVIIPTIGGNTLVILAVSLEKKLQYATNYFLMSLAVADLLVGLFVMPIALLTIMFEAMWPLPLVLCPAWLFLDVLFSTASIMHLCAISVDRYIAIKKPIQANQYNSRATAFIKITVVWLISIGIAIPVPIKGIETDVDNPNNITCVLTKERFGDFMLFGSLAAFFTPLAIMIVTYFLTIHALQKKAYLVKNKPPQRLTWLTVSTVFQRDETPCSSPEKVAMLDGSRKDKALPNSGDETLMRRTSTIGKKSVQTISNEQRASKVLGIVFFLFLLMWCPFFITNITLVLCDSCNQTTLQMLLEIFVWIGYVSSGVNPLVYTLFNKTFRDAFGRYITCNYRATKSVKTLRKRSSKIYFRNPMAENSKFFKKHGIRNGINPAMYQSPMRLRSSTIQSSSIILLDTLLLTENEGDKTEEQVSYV

`CCC(=O)N1c2ccc(S(=O)(=O)Nc3cccc(OC)c3)cc2CC1C` (stereo not shown) [VU625, N-(3-methoxyphenyl)-2-methyl-1-propionylindoline-5-sulfonamide] was tested, and the IC50 (AeKir2B) was 45100 nM, the IC50 (AeKir1; 11-point CRCs, 95% CI: 0.25–0.39 µM, read-out: IC50 (AeKir1, Tl+ flux)) was 320 nM and the IC50 (AeKir1; Fig. 2C, 95% CI: 254.4–390.2 nM, n = 4 independent experiments in triplicate, read-out: IC50 (AeKir1, Tl+ flux)) was 315 nM. The IC50 (AeKir1; Table 2, southern amide SAR, 11-point CRCs on AeKir1 in Tl+ flux, triplicate on two separate days, read-out: IC50±SEM) was 360 ± 20 nM, the IC50 (AeKir1; Table S3, left-hand sulfonamide SAR, 11-point CRCs on AeKir1 in Tl+ flux, triplicate on two separate days, read-out: IC50) was 856 nM and the “Hill coefficient (nH)” value (AeKir1; Tl+ flux CRC, 95% CI: 0.8–1.2) was 0.98. It also gave a radioligand displacement (5-HT2B receptor) of 69%.
